Measurements from patent US20050124557A1, “Use of benzothiazepines having activity as inhibitors of ileal bile acid transport for reducing cholesterololemia” (priority 2002, published 2005).
Where a name gives a salt, the structure may show the parent alone.

Tests used:
[1] = test system: LDL receptor/ApoE deficient mice; assay: Combination study (experiment II): plasma lipids/lipoproteins after Compound (I), atorvastatin calcium salt or both; format: in vivo; settings: for HDL, % Change compared to control group / LDL, % Change compared to control group / LP-remnants, % Change compared to control group: FPLC
Experimental: (§1) Compound (I) was dissolved in polyethanylglycol (PEG):ethanol:solutol:Water (4:1:0.5:8.5) vehicle and administered by gavage once a day in the afternoon.
(§2) Altogether 54 female LDL receptor/ApoE deficient mice were used (5 to 6 weeks old weighing 25 to 30 g at the start of the study; obtained from B&M/AS, Denmark). They were kept under standardized conditions with free access to water and chow. The light-cycle hours were between 6:00 a.m. and 6:00 p.m. In experiment I, the dose response study, the mice were treated with Compound (I) by gavage once a day in the afternoon the first three days and in the morning the last day. The control group on regular R^3-chow received the vehicle by gavage. […] The control group received R^3 chow and vehicle.
(§3) Mice were starved 3 hours before they were scarified at 10 a.m. Animals were anaesthetized with isofluran, bled by cardiac puncture, and thereafter killed by cervical dislocation. Blood was collected into EDTA containing tubes, plasma was separated by centrifugation and stored at −70° C.
(§4) Cholesterol in plasma and in FPLC on line measurement was performed with a commercial cholesterol kit from Roche Diagnostics, GmbH, Germany, Cholesterol, CHOD-PAP 1489437.
(§5) Triglycerides in plasma was measured by using a commercial reagent kit, from Roche Diagnostics, GmbH, Germany, Triglycerides/GB, 450032.
(§6) The cholesterol distribution profiles were measured by using a size exclusion high performance liquid chromatography system, SMART, with column Superose 6 PC 3.2/30, (Amersham Pharmacia Biotec, Uppsala, Sweden). The chromatographic system was linked to an air segmented continuous flow system for online post-derivatization analysis of total cholesterol by using enzymatic colorimetric reagents. The SMART-system was connected to a sample injector, (Gina 50, Gynkotek HPLC, Germering, GmbH). Elution buffer consisted of 0.01M Tris, 0.03 M NaCl, pH 7.40, flow rate […]. The on line flow system was equipped with a peristaltic pump, flow rate 0.7 ml/min, and an incubation coil for 8 minutes at 37° C. The absorbance was measured at […] with a UV/VIS detector, (Jasco UV-970, Jasco International Co, Ltd, Japan). Data were integrated with a Chromeleon chromatography data system (Gynkotek HPLC, Germering GmbH). The distribution of lipoproteins was continuously measured as total cholesterol by using enzymatic calorimetric reagent, reconstituted in water, double volume compared to manufacturer instructions. The commercial kits were from Roche Diagnostics, GmbH, Germany, Cholesterol, CHOD-PAP 1489437. The separation was performed within 60 minutes on a 10 μl sample. The integrated area of the fractions was expressed in molar concentration. The various peaks in the profiles are designated LP-remnants, LDL, and HDL for simplicity, even though it is clear that the separation is determined primarily by the size of the lipoproteins.

[2] = test system: LDL receptor/ApoE deficient mice; assay: Dose response study (experiment I): plasma lipids/lipoproteins after Compound (I) by gavage; format: in vivo; settings: for Chol (plasma total cholesterol), % Change compared to control group / LP-remnants + LDL/HDL, % Change compared to control group / TG (plasma triglycerides), % Change compared to control group / HDL, % Change compared to control group / LDL, % Change compared to control group / LP-remnants, % Change compared to control group: three days, gavage
Experimental: as §1, §2, §3, §4, §5, §6
With the aim to determine the effect of the BAT inhibitor, Compound (I), on the level of plasma lipids in LDL receptor/ApoE deficient mice, groups of animals received vehicle or Compound (I) at increasing doses (0.62, 2.5, 10 and 40 μmol/kg/day) for 3.5 days. […] To analyze plasma lipoproteins in detail, plasma lipoprotein patterns were generated after separation of plasma by FPLC.

[3] = FPLC analysis of plasma, 7 days
[4] = one week, Compound (I) 10 μmol/kg/day by gavage, atorvastatin calcium salt 0.05% in chow
[5] = FPLC, dose not stated in the sentence (Table 1: 40 μmol/kg/day)

CC(C)c1c(C(=O)Nc2ccccc2)c(-c2ccccc2)c(-c2ccc(F)cc2)n1CC[C@@H](O)C[C@@H](O)CC(=O)O [Atorvastatin calcium salt, reference compound]
reduction of LDL cholesterol [1, 3]: 44%
LP-remnants + LDL/HDL, % Change compared to control group [1, 4]: 2%
HDL, % Change compared to control group [1, 4]: −22%
LDL, % Change compared to control group [1, 4]: −43%
LP-remnants, % Change compared to control group [1, 4]: −2%

CCCC[C@]1(CC)CS(=O)(=O)c2cc(O[C@@H]3O[C@H](C(=O)O)[C@@H](O)[C@H](O)[C@H]3O)ccc2[C@@H](c2ccccc2)N1 [Compound (I), (3R,5R)-3-butyl-3-ethyl-1,1-dioxido-5-phenyl-2,3,4,5-tetrahydro-1,4-benzothiazepin-8-yl β-D-glucopyranosiduronic acid]
increase in HDL cholesterol ([1]; 7 days): 22%
effect on the plasma triglyceride level (in words) ([1]; 7 days, Compound (I) 10 μmol/kg/day alone): no effect
reduction of total plasma cholesterol ([1]; 7 days, atorvastatin calcium salt 0.05% in diet (approximately 80-100 mg/kg/day), Compound (I) 10 μmol/kg/day): 40%
reduction of LDL cholesterol [1, 3]: 30%
reduction of LP-remnants cholesterol [1, 3]: 62%
Chol (plasma total cholesterol), % Change compared to control group [1, 4]: −42%
LP-remnants + LDL/HDL, % Change compared to control group [1, 4]: −54%
TG (plasma triglycerides), % Change compared to control group [1, 4]: 7%
HDL, % Change compared to control group [1, 4]: 22%
LDL, % Change compared to control group [1, 4]: −29%
LP-remnants, % Change compared to control group [1, 4]: −62%
Chol (plasma total cholesterol), % Change compared to control group ([2]; 0.625 μmol/kg/day): −9%
LP-remnants + LDL/HDL, % Change compared to control group ([2]; 0.625 μmol/kg/day): −30%
TG (plasma triglycerides), % Change compared to control group ([2]; 0.625 μmol/kg/day): 13%
HDL, % Change compared to control group ([2]; 0.625 μmol/kg/day, FPLC): 29%
LDL, % Change compared to control group ([2]; 0.625 μmol/kg/day, FPLC): 8%
LP-remnants, % Change compared to control group ([2]; 0.625 μmol/kg/day, FPLC): −27%
Chol (plasma total cholesterol), % Change compared to control group ([2]; 10 μmol/kg/day): −35%
LP-remnants + LDL/HDL, % Change compared to control group ([2]; 10 μmol/kg/day): −55%
TG (plasma triglycerides), % Change compared to control group ([2]; 10 μmol/kg/day): 23%
HDL, % Change compared to control group ([2]; 10 μmol/kg/day, FPLC): 36%
LDL, % Change compared to control group ([2]; 10 μmol/kg/day, FPLC): −20%
LP-remnants, % Change compared to control group ([2]; 10 μmol/kg/day, FPLC): −54%
Chol (plasma total cholesterol), % Change compared to control group ([2]; 40 μmol/kg/day): −40%
LP-remnants + LDL/HDL, % Change compared to control group ([2]; 40 μmol/kg/day): −62%
TG (plasma triglycerides), % Change compared to control group ([2]; 40 μmol/kg/day): 8%
HDL, % Change compared to control group ([2]; 40 μmol/kg/day, FPLC): 45%
LDL, % Change compared to control group ([2]; 40 μmol/kg/day, FPLC): −23%
LP-remnants, % Change compared to control group ([2]; 40 μmol/kg/day, FPLC): −63%
Plasma triglycerides (in words) ([2]; 0.62-40 μmol/kg/day, 3.5 days): not significantly altered
HDL cholesterol (in words) ([2]; FPLC): no reduction
reduction in plasma cholesterol in LDL fraction [2, 5]: 23%
reduction in plasma cholesterol in LP-remnants fraction [2, 5]: 63%
reduction of total plasma cholesterol ([2]; highest dose (40 μmol/kg/day), 3.5 days): 40%
